Laboratory results published in the OPERA property sets (Mansouri et al. 2018).
Where a SMILES comes first, the peptide text is derived from it.

With `CCc1ccccc1CNc1[nH]cnc2ncnc1-2` as the compound, how does the logP read?
Its logP is 2.92.

With `C[C@@H]1N=C(c2ccccc2Cl)c2cc([N+](=O)[O-])ccc2NC1=O` as the compound, how does the logP read?
The logP was 2.72.

Which logP does the source give for `O=c1[nH]c2cc(Cl)ccc2c(O)c1-c1ccccc1` here?
Its logP is 3.5.

For `CNC(=O)c1cn2c(C)c(C)nc2c2c1CCC(c1ccccc1)O2` (stereo not drawn), which logP is on record?
The logP was 3.6.

Which logP does the source give for `COc1ccc(C2Cc3cc(SC(C)(C)C)ccc3N(CCN(C)C)C(=O)C2OC(C)=O)cc1` (stereo not drawn) here?
The logP was 5.6.

Which logP does the source give for `O=S(=O)(c1ccccc1)C(F)(F)F` here?
Its logP is 2.68.

For `NC(Cc1ccc(O)cc1)C(=O)N1CCCC1C(=O)O` (stereo not drawn) (H-Tyr-Pro-OH; configuration not given here), which logP is on record?
Its logP is -2.03.

With `O=C(Cn1ncc([N+](=O)[O-])n1)NCCO` as the compound, how does the logP read?
The logP was -0.82.

Which logP does the source give for `CC(C)CNc1ncnc2c1ncn2C1OC(CO)C(O)C1O` (stereo not drawn) here?
The logP was 1.01.

Which logP does the source give for `OCCCCNc1[nH]cnc2ncnc1-2` here?
Its logP is 0.32.

For `COC(=O)C(C)(C)S(=O)(=O)c1ccc([N+](=O)[O-])cc1`, which logP is on record?
The logP was 1.38.

Which logP does the source give for `COC1CC(OC2C(C)OC(OC3CCC4(C)C(CCC5C4CC(O)C4(C)C(C6=CC(=O)OC6)CCC54O)C3)CC2OC)OC(C)C1OC1CC(O)C(O)C(C)O1` (stereo not drawn) here?
Its logP is 2.14.

For `COc1cccc(C=[N+]([O-])C(C)(C)C)c1`, which logP is on record?
The logP was 1.4.

With `CC(C)C(NC(=O)C(N)Cc1ccc(O)cc1)C(=O)NC(Cc1ccccc1)C(=O)O` (stereo not drawn) as the compound, how does the logP read?
The logP was -1.37.

With `O=C(O)CCCCCON=C(c1ccccc1)c1cncnc1` as the compound, how does the logP read?
Its logP is 2.91.

Which logP does the source give for `Cc1cc2c(cc(C)c3ccc(=O)oc32)o1` here?
Its logP is 2.92.

For `O=c1cc(-c2ccccc2)oc2c(Cl)cc(Cl)cc12`, which logP is on record?
Its logP is 4.76.

Which logP does the source give for `CCCNC(=O)c1[nH]cc(-c2ccc(Cl)cc2)c1N1CCOCC1` here?
Its logP is 4.2.

With `CCN1CCCC1CNC(=O)c1c(OC)ccc(OC)c1O` (stereo not drawn) as the compound, how does the logP read?
The logP was 2.82.

With `NC(Cc1ccccc1)C(=O)NC(Cc1c[nH]c2ccccc12)C(=O)O` (stereo not drawn) as the compound, how does the logP read?
The logP was -0.79.

With `O=C(O)C1CSC(c2cc(O)ccc2O)=N1` (stereo not drawn) as the compound, how does the logP read?
Its logP is 0.9.

Which logP does the source give for `N#Cc1cccc(Cn2cnc3ccccc32)c1` here?
Its logP is 2.47.

Which logP does the source give for `c1ccc(CN2CCN(CCn3nc4ccccc4n3)CC2)cc1` here?
The logP was 3.3.

For `CC(C)CC(NC(=O)C(N)CO)C(=O)O` (stereo not drawn) (H-Ser-Leu-OH; configuration not given here), which logP is on record?
The logP was -2.49.

With `CCCCCNc1ncnc2nc[nH]c12` as the compound, how does the logP read?
The logP was 2.58.

With `CCSSc1ncc[nH]1` as the compound, how does the logP read?
The logP was 2.13.

Which logP does the source give for `COc1ccc(-c2cn3cccnc3n2)c(OC)c1` here?
The logP was 1.94.

Which logP does the source give for `COC(=O)NC(=O)Cn1c(C)nc2ccccc2c1=O` here?
The logP was 0.4.

With `CCOCCOCCOc1ccc(NC(=O)NC23CC4CC(CC(C4)C2)C3)cc1` as the compound, how does the logP read?
Its logP is 3.9.

With `Nc1nc(N)nc(-c2ccc(SC(F)(F)F)cc2)n1` as the compound, how does the logP read?
Its logP is 3.2.

Which logP does the source give for `CCS(=O)(=O)n1cc(-c2ccc(Cl)cc2)c(N2CCOCC2)c1C(=O)OC` here?
The logP was 4.2.

For `Cc1cn(C2C=CC(COP3(=O)OCc4cc([N+](=O)[O-])ccc4O3)O2)c(=O)[nH]c1=O` (stereo not drawn), which logP is on record?
Its logP is 0.18.

With `CCC(C)C(NC(=O)C(CC(C)C)NC(=O)C(N)CO)C(=O)O` (stereo not drawn) (H-Ser-Leu-Ile-OH; configuration not given here) as the compound, how does the logP read?
The logP was -1.99.

Which logP does the source give for `CCCOc1cccc(-c2c[nH]c(SCCc3c[nH]cn3)n2)c1` here?
Its logP is 3.7.

With `CCNC(=S)NS(=O)(=O)c1cnccc1NC1CCCCCCC1` as the compound, how does the logP read?
The logP was 3.86.

Which logP does the source give for `O=C(O)CCCCCON=C(c1ccccc1)c1ccncn1` here?
The logP was 2.66.

With `O=C1N=C(N2CCOCC2)CN1Cc1ccccc1Cl` as the compound, how does the logP read?
Its logP is 1.

For `NC(=O)C(N)Cc1c[nH]c2ccccc12` (stereo not drawn), which logP is on record?
The logP was 0.3.

For `COc1ccc(C2Cc3c(ccc(Br)c3OC)N(CCN(C)C)C(=O)C2OC(C)=O)cc1` (stereo not drawn), which logP is on record?
The logP was 4.4.

Which logP does the source give for `CC(C)(C)[N+]([O-])=Cc1ccc(O)cc1` here?
The logP was 0.6.

With `O=c1cc(CI)occ1O` as the compound, how does the logP read?
The logP was 0.67.

Which logP does the source give for `COC(=O)C(C)=CC1C(C(=O)OCc2ccccc2)C1(C)C` (stereo not drawn) here?
Its logP is 4.4.

For `CC1=C(CC(=O)O)c2cc(F)ccc2C1=Cc1ccc(S(C)(=O)=O)cc1`, which logP is on record?
Its logP is 3.29.

Which logP does the source give for `CSCCC(N)C(=O)NC(Cc1c[nH]c2ccccc12)C(=O)O` (stereo not drawn) here?
Its logP is -1.5.

With `COc1ccc(NC(=O)OCCN2CCCCC2)cc1` as the compound, how does the logP read?
The logP was 2.95.

For `COc1ccc2c(C)cc(=O)oc2c1`, which logP is on record?
The logP was 1.89.

Which logP does the source give for `Cc1cc(=O)oc2c1ccc1occ(C)c12` here?
Its logP is 3.08.

Which logP does the source give for `CCC(C)C(N)C(=O)NC(CO)C(=O)NC(CC(C)C)C(=O)O` (stereo not drawn) (H-Ile-Ser-Leu-OH; configuration not given here) here?
Its logP is -2.28.

For `CCNc1ncnc2c1ncn2C1OC(CO)C(O)C1O` (stereo not drawn), which logP is on record?
Its logP is 0.01.

Which logP does the source give for `O=Cc1ccc2ccc3cccc4ccc1c2c34` here?
The logP was 4.23.

For `O=C1N=C(N2CCOCC2)CN1Cc1ccccc1`, which logP is on record?
Its logP is 0.5.

For `COc1ccc(C2Cc3c(C(=O)OCc4ccccc4)cccc3N(CCN(C)C)C(=O)C2OC(C)=O)cc1` (stereo not drawn), which logP is on record?
Its logP is 5.3.

For `CCCC(=O)OC1Cc2c(O)cc(O)cc2OC1c1ccc(O)c(O)c1` (stereo not drawn), which logP is on record?
The logP was 2.47.

Which logP does the source give for `Cc1nc2c3c(c(C(=O)N(C)C)cn2c1C(=O)N(C)C)CCC(c1ccccc1)O3` (stereo not drawn) here?
Its logP is 1.89.

Which logP does the source give for `Cc1ccc(Nc2ccncc2S(=O)(=O)NC(=NC#N)NC(C)C)cc1` here?
The logP was 1.91.

Which logP does the source give for `CNc1ccc2cc3ccccc3nc2c1CO` here?
Its logP is 2.1.

With `C=CC(=O)OC1CCCCC1` as the compound, how does the logP read?
The logP was 2.8.

For `Cc1cccc(OCC2CN=C(N)O2)c1C` (stereo not drawn), which logP is on record?
Its logP is 2.25.

With `COc1ccc(CNc2[nH]cnc3ncnc2-3)cc1` as the compound, how does the logP read?
Its logP is 2.17.

With `CC(C)NC(=NC#N)NS(=O)(=O)c1cnccc1Nc1cccc(C(F)(F)F)c1` as the compound, how does the logP read?
Its logP is 2.54.

Which logP does the source give for `CC(C)(O)C1CCC2(C)CCCC(C)(O)C2C1` (stereo not drawn) here?
Its logP is 3.04.

For `Cc1c(O)c(=O)ccn1CCCOC(=O)c1ccccc1`, which logP is on record?
Its logP is 1.25.

With `CC=C(C)C(=O)OCC1CCCC2(C)CCC(C(C)(C)O)CC12` (stereo not drawn) as the compound, how does the logP read?
Its logP is 5.27.
